Test results from patent US20030166004A1, “Endothelial-cell binding peptides for diagnosis and therapy” (priority 2001, published 2003).
Where two headings read alike, the source gives them in different places. Ends that are not written are not given here. * marks the point of attachment. Biotin = O=C1N[C@H]2[C@H](CS[C@H]2CCCCC(=O)*)N1

Tests used:
[1] = test system: chicken aortic rings; assay: Aortic ring assay (chicken aortic rings in Matrigel, microvessel formation); format: cell-based; details: peptide 125 to 1000 μM, 2-3 days
Excerpt: The aortic ring assay is a widely used in vitro assay for angiogenesis. Typically, rat aortas are sliced crosswise and placed in Matrigel. After three to five days, microvessel sprouting can be roughly quantified by manual counting or by using image analysis. The aortic ring assay is low-cost, easy to use, and offers many assays from a single animal. A relatively new variant uses embryonic chick aortic arches (see Muthukkaruppan et al., Proceedings of the American Association for Cancer Research Annual Meeting, 2000).
In this experiment, chicken aortic rings are embedded in Matrigel (BD BioCoat™ Matrigel™ or other equivalent products) in optimized MCDB-131 media (Sigma product number: M8537, or equivalent products from other vendors). From endothelial cells (EC) in the aortic intima, a complex network of branching and anastomosing microvessels develop interspersed with fibroblast as individual cells. In this assay the ability of the identified EC-binding peptides is tested for their abilities to inhibit EC branching and microvessel formation.
Chicken aortic branches were dissected and cleaned from 15 day old chicken embryos, and were then rinsed well in cold PBS+Penicillin/Streptomycin (P/S) buffers. The arteries were then cut into about 1 mm rings using sterile razor blade, and the resulting rings were mounted in 10-20 μl of Matrigel (in a 48-well plate). Subsequently, 300 μl of MCDB-131 basal media+P/S containing the indicated amount of test peptide were added. The cultured rings were incubated at 37° C., with 5% CO2 for 2-3 days, and the extent of microvessel formation were evaluated as the end of the experiment.

[2] = test system: angiogenesis in Matrigel plug; assay: Mouse Matrigel plug assay (FGF-induced angiogenesis, hemoglobin content); format: in vivo; details: for inhibition of angiogenesis in the Matrigel plug assay (in words) / inhibition of angiogenesis: mouse Matrigel plug with FGF; for inhibition of angiogenesis: peptide in the plug versus FGF-only control plug, hemoglobin levels
Method: This assay takes advantage of the fact that Matrigel is liquid at 4° C. but becomes gel when warmed to 37° C. Thus when injected subcutaneously into the ventral region of a mouse, Matrigel solidifies and forms a so-called “Matrigel plug”. When angiogenic factors, such as FGF, are mixed with the Matrigel and injected, endothelial cells migrate into the gel plug and form functional vessels. The level of angiogenesis can then be assessed by measuring hemoglobin levels in the plugs, which are directly proportional to the extent of angiogenesis. Typically, two plugs are assayed in each mouse: one plug (control plug) contains FGF only and is used as control for angiogenesis, while the test plug contains FGF and an indicated amount of test peptide(s). In single-point assays, peptide concentration in the plug is 1 mM.
C57BL/6 female mice, 6-8 wks.
Basis FGF (bFGF) stock was prepared at 25 μg/ml in saline buffer +5% mouse serum albumin. The bFGF stock was added to Matrigel at 200 ng/ml. The mixture was left on ice for at least 3 hours before further use. For each mouse, 1 ml of such mixture was prepared, so that 0.5 ml of the mixture can be injected into each mouse to achieve about 100 ng/one side injection. If a test peptide were also to be added, for each mouse, 50 μl of 10 mM peptide (or 5 mM cRGD, positive control) was slowly added to Matrigel, swirling while adding. Per 5 mice, add 300 μl of peptide per 3 mls of Matrigel.
Syringes for injection were left on ice before injection. One syringe is used for each side of the group of 5 mice. About 1 ml of the mixture can be loaded at a time and injected into 2 mice using the Becton Dickinson 1 ml syringe for subcutaneous injection (26 gauge, ⅝ths, cat# 309597). Mice were anesthetized with isofluorane in a chamber, and were pulled out just as their breathing became slow. Injection were performed subcutaneously at inner thighs of the mice.
To determined the degree of angiogenesis, Matrigel plugs were dissected out, and placed in pre-weighed Falcon 5 ml snap-cap round bottomed tubes (polypropylene, Falcon cat# 352063). One ml of PBS was then added. The tubes were weighed with Matrigel plugs inside. The samples were kept at 4° C. until ready for hemoglobin assay.
Sonicate samples before measuring the hemoglobin content using the Plasma hemoglobin kit from Sigma.

[3] = test system: aortic smooth muscle cells (AoSMC)
Excerpt: (§1) We developed a cell-based saturation ligand binding assay to measure the specific binding of the isolated EC binding peptides to human microvascular endothelial cells (HMVEC) and aortic smooth muscle cells (AoSMC). This assay allows the determination of the relative binding affinities of the isolated EC binding peptides. The assay is based on the highly sensitive fluorescence enhancement technique DELFIA® and coated microtitration plates. In this assay the synthetic peptides labeled with biotin at their amino terminus are incubated with fixed target cells in microtiter plate format. After incubation, the excess, unbound peptides are removed and europium labeled streptavidin added to the plates. After the removal of excess streptavidin, the europium is released and its fluorescence is measured.
(§2) Saturation ligand binding experiments measure specific ligand binding at equilibrium at various concentrations of the ligand. Binding curves are analyzed to determine binding site or receptor number and affinity. This curve is known as a rectangular hyperbola, binding isotherm, or saturation binding curve. This curve is determined by the following equation: […]
(§3) Y is zero initially, and increases to a maximum plateau value, Bmax. This equation describes the equilibrium binding of a ligand to a receptor as a function of increasing ligand concentration. X is the concentration of the ligand, and Y is the specific binding. Kd is the equilibrium dissociation constant, expressed in the same units as the X-axis (concentration). When the drug concentration equals Kd, half the binding sites are occupied at equilibrium.
(§4) Streptavidin-Eu^3+ reagent (cat # 1244-105), reagent diluent (cat # 1244-111), and Enhancement Solution (cat # 1244-105) were purchased from Perkin Elmer-Wallac (Turku, Finland), and the plates were read on Wallac Victor counter. The binding constants were calculated using the method of nonlinear regression analysis with the Prizm software (GraphPad Software, Inc.).
(§5) The HMVEC (human microvascular endothelial cell) and aortic smooth muscle cells (AoSMC) cells were purchased from Clonetics (San Diego, Calif.) and maintained according to the specifications of the supplier. In these experiments the cultures were used from passages 5 and 6 only.
(§6) The cultured subconfluent cells were trypsinized and resuspended in the culture media according to Clonetics instructions. The diluted suspension was dispensed into a reagent reservoir with magnetic stirring bar. 50 μl of the cell suspension was dispensed into each well of the 96-well plate with the Multidrop while stirring the suspension. The seeding density was 5*10^3 cells/well. The plates are incubated at 37° C. in the atmosphere containing 5% CO2 for 48 hours.
(§7) The cells were then washed three times with TBS with 0.01%Tween20 (wash buffer) and fixed with 2% formalin solution for fifteen minutes at 20° C. The cells were subsequently washed three times with wash buffer. The nonspecific sites on the plates were blocked by 300 μl of Pierce Casein Blocker per well for two hours at 20° C.
(§8) The saturation binding assay was performed by adding 50μl of the biotinylated peptide per well at increasing concentrations. The concentration was ranging from 1 nM to 10 μM. All measurements were performed in triplicates. Peptide dilutions were prepared from 10 mM DMSO stocks in wash buffer. The plates were incubated for one hour at room temperature and subsequently washed five times with wash buffer using Titertek automatic plate washer to remove any unbound peptide. The biotinylated peptide bound to the cells was then allowed to react for thirty minutes with 50 μl of 2000× dilution of the streptavidin-Eu^3+ reagent, diluted in the Wallac reagent diluent. Finally, after washing the unbound streptavidin-Eu^3+ reagent, 50 μl of Wallac Enhancement Solution per well was added to release the free Eu^3+ from its chelate form. Free Eu^3+ rapidly forms a highly fluorescent stable chelate with the components of the Enhancement solution. […]

[4] = test system: human microvascular endothelial cells (HMVEC); details: Cell Type HMVEC; for Binding Affinity: equals Bmax/Kd; for Kd: fixed cells, biotinylated peptide 1 nM to 10 μM
Excerpt: as §1, §2, §3, §4, §5, §6, §7, §8

Substance | inhibition of angiogenesis (microvessel formation) in the aortic ring assay (in words) [1] | inhibition of angiogenesis in the Matrigel plug assay (in words) [2] | inhibition of angiogenesis [2] [%] | dose dependence of inhibition of angiogenesis ([2]; mouse Matrigel plug, three concentrations, n no less than 9) | Binding Affinity [3] | Bmax (counts/cell) [3] [counts/cell] | Kd [3] [nM] | Bmax (counts/cell) [4] [counts/cell] | Binding Affinity [4] | Kd [4] [nM] | binding to smooth muscle cells compared with endothelial cells [3] | Bmax (counts/cell) ([3]; Cell Type AoSMC) | Binding Affinity ([3]; Cell Type AoSMC, equals Bmax/Kd) | Kd ([3]; Cell Type AoSMC, fixed cells, biotinylated peptide 1 nM to 10 μM) [nM] | binding to AoSMC (in words) [3]
HTKQIPRHIYSA [1-H5] | tested positive | tested positive | 44 | linearly proportional to the concentration |  |  |  |  |  |  |  |  |  |  | 
Biotin-GCPTPHSGTCG (cysteine pairing not given here) [2-G9] | tested positive | tested positive | 57 |  | 57.639 | 8.519 | 148 | 5.15 | 166.12 | 31 |  |  |  |  | 
Biotin-GCTQMRTAYCG (cysteine pairing not given here) [7-D5] |  |  |  |  | 28.211 | 10.8332 | 384 | 11.0211 | 2.3116 | 4770 | binds better to smooth muscle cells than to endothelial cells |  |  |  | 
Biotin-CDCRGDCFC-OH (cysteine pairing not given here) [reference compound] |  |  |  |  |  |  |  |  |  |  |  | 7.18 | 28.725 | 250 | 
Biotin-GCDSHKRLKCG (cysteine pairing not given here) [9-G5] | tested positive | tested positive |  |  | −2.127 | 2.937 |  | 10.1138 | 19.195 | 527 |  |  |  |  | do not bind
cRGD [reference compound] |  |  | 36 |  |  |  |  |  |  |  |  |  |  |  | 
Biotin-GCMNQHSSACG (cysteine pairing not given here) [3-B5] |  |  |  |  | 85.24 | 8.354 | 98 | 3.817 | 394.75 | 9.7 |  |  |  |  | 
Biotin-GCHSSTWRACG (cysteine pairing not given here) [2-C10] | tested positive | tested positive |  |  | −5.709 | 0.9694 |  | 8.79 | 3.83 | 2290 |  |  |  |  | do not bind
